# Source: patent US20250073184A1, “CANNABIGEROQUINONE COMPOUNDS, COMPOSITIONS INCLUDING SUCH COMPOUNDS, AND USES OF SUCH COMPOUNDS AND COMPOSITIONS” (Juva Life, Inc., priority 2021, published 2025)
# Like-named read-outs stand apart in the source and are kept apart here.
# How the values were obtained:
# [1] = target: T1, Recombinant human ALOX15 (Arachidonate 15-Lipoxygenase) (Homo sapiens, UniProt P16050); assay: Biochemical LOX-15 assay
# T1 construct: full length encompassing amino acids 2-662(end); purchased BPS Biosciences 50220
# T1 sequence (P16050 2-662): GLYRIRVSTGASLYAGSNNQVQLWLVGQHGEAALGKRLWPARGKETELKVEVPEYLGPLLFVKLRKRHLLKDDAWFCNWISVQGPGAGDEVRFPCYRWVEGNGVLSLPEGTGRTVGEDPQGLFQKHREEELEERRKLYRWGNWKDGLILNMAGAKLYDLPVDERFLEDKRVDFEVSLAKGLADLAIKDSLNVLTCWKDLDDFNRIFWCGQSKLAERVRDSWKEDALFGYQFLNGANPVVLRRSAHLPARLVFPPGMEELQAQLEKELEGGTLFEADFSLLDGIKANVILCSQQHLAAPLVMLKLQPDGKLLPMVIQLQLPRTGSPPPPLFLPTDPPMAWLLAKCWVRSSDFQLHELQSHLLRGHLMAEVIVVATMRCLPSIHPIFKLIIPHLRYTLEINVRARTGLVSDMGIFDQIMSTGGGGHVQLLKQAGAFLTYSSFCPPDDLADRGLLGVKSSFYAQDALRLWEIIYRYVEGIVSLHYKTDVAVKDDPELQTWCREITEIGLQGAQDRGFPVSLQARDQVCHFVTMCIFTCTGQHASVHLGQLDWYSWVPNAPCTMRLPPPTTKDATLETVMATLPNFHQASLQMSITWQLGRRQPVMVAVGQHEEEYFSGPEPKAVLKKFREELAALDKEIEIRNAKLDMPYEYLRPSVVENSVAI
# Experimental: The LOX-15 assay was performed in assay buffer comprising: 50 mM Tris (pH 7.5), 5 uM DHR, 50 uM AA, and 50 nM recombinant enzyme. Serially diluted compounds were prepared in DMSO in Echo qualified 384 well plates. An assay buffer was then prepared […] supplemented 10 uM DHRA. 10 uL of the supplemented buffer was dispensed into control (no enzyme) wells in the black 384 well assay plate. Next, a 2× enzyme solution was prepared, comprising 100 nM LOX-15 enzyme in the supplemented assay buffer. 10 μL of the 2× enzyme solution was then dispensed into test wells in the black 384 well assay plate. Serially diluted compounds were added to the assay plate by acoustic dispensing (Labcyte 550). Control wells received DMSO only.
# Next, the 2× substrate was prepared to comprise 100 uM arachidonic acid in the assay buffer. 10 uL of the 2× substrate was then added to all wells in the assay plate. The plate was incubated for 3 hours.
# where RFU100% is fluorescence in control samples without compound, RFU0% is fluorescence in control samples without LOX-15, and RFUcompound fluorescence in a sample with compound.
# The calculated %-Inh values were plotted against compound concentration. To determine EC50 values, dose-response curves were fitted by a 4-parameter sigmoid inhibition model using XLFit® software (IDBS).
# IL10 = IL10 secretion assay in human PBMCs (PHA-M, ELISA); type: cell-based; settings: for EC50: read-out: Inhibitory Activity EC50, IL10
# Experimental: Fetal bovine serum (FBS) was obtained from ThermoFisher (Cat #16000044). • Other reagents: 96 well TC plates were obtained from ThermoFisher (Cat #07-2000-90).
# Cryopreserved PBMCs were thawed in a water bath and transferred to 50 mL polypropylene tubes. The cells were washed two times with 25 mL of RPMI medium supplemented with 5% of regular FBS and re-suspended at a density of 1.5^^6 cells/mL. The cells were plated into 96 well TC late (100 uL/well). Serially diluted compound was added to the cells in duplicate wells for each concentration. Control wells received DMSO only (0.3% final). The cells were pre-incubated with compound for 2 hr. After pre-incubation, the cells were stimulated by PHA-M (10 ug/mL) for 40 hr. Control samples with and without PHA-M in the absence of compound were assembled in each test plate. […] ELISA readout (optical density at 450 nm) is commensurable with the amount of IL10 produced by the cells. Assay window was determined in each experiment by comparing average OD450 values in stimulated and un-stimulated samples in the absence of compound. ELISA calibration was performed in each detection plate using serially diluted recombinant human IL10 standard, to ensure that OD450 values for all test samples were within linear range of detection.%-Inhibition by compound was calculated using following equation:
# where OD450100% is optical density in control samples stimulated with PHA-M without compound, OD4500% is optical density in unstimulated control samples, and OD450compound is optical density in a sample stimulated with PHA-M in the presence of compound. The calculated %-Inh values were plotted against compound concentration. To determine IC50 values, dose-response curves were fitted by a 4-parameter sigmoid inhibition model using XLFit® software (IDBS).
# TNFa = TNFa secretion assay in human PBMCs (LPS, ELISA); type: cell-based; settings: read-out: Inhibitory Activity EC50, TNF
# Experimental: Fetal bovine serum (FBS) was obtained from ThermoFisher (Cat #16000044). • Other reagents: 96 well TC plates were obtained from ThermoFisher (Cat #07-2000-90). LPS was obtained from Sigma (Cat #L3024).
# TNF-alpha was assessed using a standard ELISA protocol. Cryopreserved PBMCs were thawed in a water bath and transferred to 50 mL polypropylene tubes. The cells were washed two times with 25 mL of RPMI medium supplemented with 5% of heat-inactivated FBS and re-suspended at a density of 4.5^^6 cells/mL. The cells were plated into 96 well TC late (100 uL/well). Serially diluted compound was added to the cells in duplicate wells for each concentration. Control wells received DMSO only (0.3% final). The cells were pre-incubated with compound for 1 hr. After pre-incubation, the cells were stimulated by LPS (100 ng/mL) for 6 hr. Control samples with and without LPS in the absence of compound were assembled in each test plate. TNFa was detected in media supernatants by using a sandwich anti-TNFa ELISA kit (BD Biosciences) according to protocol provided by the manufacturer. ELISA readout (optical density at 450 nm) is commensurable with the amount of TNFa produced by the cells. Assay window was determined in each experiment by comparing average OD450 values in stimulated and un-stimulated samples in the absence of compound. ELISA calibration was performed in each detection plate using serially diluted recombinant human TNFa, to ensure that OD450 values for all test samples were within linear range of detection.%-Inhibition by compound was calculated using following equation:
# where OD450100% is optical density in control samples stimulated with LPS without compound, OD4500% is optical density in unstimulated control samples, and OD450compound is optical density in a sample stimulated with LPS in the presence of compound.
# The calculated %-Inh values were plotted against compound concentration. To determine IC50 values, dose-response curves were fitted by a 4-parameter sigmoid inhibition model using XLFit® software (IDBS).
# [2] = PBMC, human PBMCs, PHA-M 10 ug/mL 40 hr
# [3] = PBMC, human PBMCs, LPS 100 ng/mL 6 hr
# [4] = recombinant enzyme, read-out: Inhibitory Activity EC50, 15-Lox
Compound,EC50 [1] [µM],inhibitory activity on IL-10 (IL10),EC50 (IL10; [2]) [µM],EC50 (TNFa; [3]) [µM],"EC50 [1, 4] [µM]","EC50 (IL10; Homo sapiens, PBMC, 40 h) [µM]","EC50 (TNFa; Homo sapiens, PBMC, 6 h) [µM]",stronger inhibition of 15-Lox compared to Cox-2 [1],"EC50 (IL10; human PBMCs, PHA-M 10 ug/mL 40 hr) [µM]","EC50 (TNFa; human PBMCs, LPS 100 ng/mL 6 hr) [µM]"
CCCCCc1cc(OC(C)=O)c(C/C=C(\C)CCC=C(C)C)c(O)c1OC(C)=O [Formula XLIII],8.4,particular strong inhibitory activity,1.2,8.68,–,–,–,–,–,–
CCCCCc1cc(OC)c(C/C=C(\C)CCC=C(C)C)c(O)c1OC [Formula XLII],18,–,> 10,> 10,–,–,–,–,–,–
CCCCCC1=C(NC)C(=O)C(C/C=C(\C)CCC=C(C)C)=C(O)C1=O [Formula XLI],28.8,particular strong inhibitory activity,> 10,> 10,–,–,–,–,–,–
CCCCCc1cc(O)c(C/C=C(\C)CCC=C(C)C)c(O)c1O [Formula XXXIX],–,particular strong inhibitory activity,–,–,2.82,1.69,6.2,–,–,–
Cannabigerol Quinone [Formula VI],–,–,–,–,0.98,–,–,over 60 fold,1.1,18.5
